Data as given in patent publication US20210181182A1, “METHOD FOR IDENTIFICATION OF PERTURBAGENS OF PARTICULAR BIOLOGICAL PROCESSES AND CELL SYSTEMS WITHIN LIVING CELLS” (priority 2018, published 2021).
Counter-ions that a name gives are not always drawn. Like-named read-outs stand apart in the source and are kept apart here. Marks after values point to notes of the source that are not given here.

What was measured:
[1] = system: mitochondria membrane potential; conditions: cited from earlier work
[2] = system: mitochondrial electron transport chain (mETC); test: FACTORIAL assay: similarity of TFAP to the consensus (invariant) mETC TFAP; format: cell-based, human
[3] = HepG2, 1-hour incubation at concentrations below 60 μM
[4] = HepG2, 24 h incubation, each value at the concentration [uM]

SMILES	MMP assay hitCall [1, 3]	also measured
CCc1cc(Cc2cc(CC)cc(C(C)(C)C)c2O)c(O)c(C(C)(C)C)c1	1	Pearson correlation with the mETC TFAP, r [2, 4]: 0.827
O=S(=O)(c1ccc(Cl)cc1)c1ccc(Cl)cc1 [4,4′-Dichlorodiphenyl sulfone]	1	Pearson correlation with the mETC TFAP, r [2, 4]: 0.810
COP(=S)(OC)SCn1nnc2ccccc2c1=O [Azinphos-methyl]	0*	Pearson correlation with the mETC TFAP, r [2, 4]: 0.823
CO/C=C(/C(=O)OC)c1ccccc1Oc1cc(Oc2ccccc2C#N)ncn1 [Azoxystrobin]	0*	Pearson correlation with the mETC TFAP, r [2, 4]: 0.894
CCCCC(CC)COP(=O)(O)OCC(CC)CCCC (stereo not shown) [Bis(2-ethylhexyl) phosphate]	1	Pearson correlation with the mETC TFAP, r [2, 4]: 0.838
CCC(C)(c1ccc(O)cc1)c1ccc(O)cc1 [Bisphenol B]	1	Pearson correlation with the mETC TFAP, r [2, 4]: 0.861
Oc1ccc(Cc2ccc(O)cc2)cc1 [Bisphenol F]	1	Pearson correlation with the mETC TFAP, r [2, 4]: 0.835
Cc1ccc(-c2cc(C(F)(F)F)nn2-c2ccc(S(N)(=O)=O)cc2)cc1 [Celecoxib, reference compound]	–	Pearson correlation with the mETC TFAP, r ([2]; 24 h): 0.883
CN(C)CCCN1c2ccccc2CCc2ccc(Cl)cc21 [Clomipramine hydrochloride, reference compound]	0*	Pearson correlation with the mETC TFAP, r ([2]; 24 h): 0.806
CC/C(=C(/CC)c1ccc(O)cc1)c1ccc(O)cc1 [Diethylstilbestrol, reference compound]	1	Pearson correlation with the mETC TFAP, r ([2]; 24 h): 0.812
CCOC(=O)[C@@H](C)Oc1ccc(Oc2nc3ccc(Cl)cc3o2)cc1 [Fenoxaprop-P-ethyl]	0	Pearson correlation with the mETC TFAP, r [2, 4]: 0.827
CNC(=O)Oc1cccc(N=CN(C)C)c1 [Formetanate hydrochloride]	0	–
Oc1c(Cl)cc(Cl)c(Cl)c1Cc1c(O)c(Cl)cc(Cl)c1Cl [Hexachlorophene]	–	MMP assay hitCall [1]: 1
C[C@@H]1[C@@H](c2ccc(Cl)cc2)SC(=O)N1C(=O)NC1CCCCC1 [Hexythiazox]	1	–
CC(C)(O)C(=O)Nc1ccc([N+](=O)[O-])c(C(F)(F)F)c1 [Hydroxyflutamide]	1	–
COC(=O)N(C(=O)N1CO[C@@]2(C(=O)OC)Cc3cc(Cl)ccc3C2=N1)c1ccc(OC(F)(F)F)cc1 [Indoxacarb]	1	Pearson correlation with the mETC TFAP, r [2, 4]: 0.887
N#Cc1cc(I)c(O)c(I)c1 [Ioxynil]	1	–
CC(C)C1CCC(Cc2ccc(Cl)cc2)C1(O)Cn1cncn1 (stereo not shown) [Ipconazole]	1	–
O=c1c(O)c(-c2ccc(O)cc2)oc2cc(O)cc(O)c12 [Kaempferol]	1	–
CC(=O)N1CCN(c2ccc(OCC3COC(Cn4ccnc4)(c4ccc(Cl)cc4Cl)O3)cc2)CC1 (stereo not shown) [Ketoconazole, reference compound]	1	–
CO/N=C(/C(=O)OC)c1ccccc1COc1ccccc1C [Kresoxim-methyl]	0*	–
CON(C)C(=O)Nc1ccc(Cl)c(Cl)c1 [Linuron]	1	–
CCOC(=O)N1CCC(=C2c3ccc(Cl)cc3CCc3cccnc32)CC1 [Loratadine, reference compound]	1	–
CC[C@H](C)C(=O)O[C@H]1C[C@@H](C)C=C2C=C[C@H](C)[C@H](CC[C@@H]3C[C@@H](O)CC(=O)O3)[C@H]21 [Lovastatin, reference compound]	1	–
CCOC(=O)CC(SP(=S)(OC)OC)C(=O)OCC (stereo not shown) [Malathion]	0*	–
Cc1ccccc1C(=O)Nc1cccc(OC(C)C)c1 [Mepronil]	1	–
CC1(C)CCC(Cc2ccc(Cl)cc2)C1(O)Cn1cncn1 (stereo not shown) [Metconazole]	1	–

SMILES	MMP assay hitCall [1, 3]	also measured
C1N2CN3CN1CN(C2)C3 [Methenamine, reference compound]	0	–
CCCCCC#CC(=O)OC [Methyl 2-octynoate]	0	–
COC(=O)/C=C(\C)CCC=C(C)C [Methyl geranate]	0	–
CN=C=S [Methyl isothiocyanate]	0	–
CN(C)c1ccc(/N=N/c2ccccc2C(=O)O)cc1 [Methyl red]	0	–
CC(=O)/C=C/c1ccccc1 [Methyl trans-styryl ketone]	0	–
CCc1cccc(C)c1N(C(=O)CCl)C(C)COC (stereo not shown) [Metolachlor]	0	–
COC(=O)c1ccccc1S(=O)(=O)NC(=O)Nc1nc(C)nc(OC)n1 [Metsulfuron-methyl]	0	–
CC#C[C@]1(O)CC[C@H]2[C@@H]3CCC4=CC(=O)CCC4=C3[C@@H](c3ccc(N(C)C)cc3)C[C@@]21C [Mifepristone, reference compound]	1	–
CN(C)c1ccc(N=O)cc1 [N,N-Dimethyl-4-nitrosoaniline]	–	MMP assay hitCall [1]: 0
CC(C)Nc1ccc(Nc2ccccc2)cc1 [N-Isopropyl-N′-phenyl-p-phenylenediamine]	–	MMP assay hitCall [1]: 0
COc1ccc(S(=O)(=O)N2C(=O)[C@@](c3ccccc3OC)(N3C[C@H](O)C[C@H]3C(=O)N(C)C)c3cc(Cl)ccc32)c(OC)c1 [Nelivaptan]	0	–
CC1(C)NC(=O)N(c2ccc([N+](=O)[O-])c(C(F)(F)F)c2)C1=O [Nilutamide, reference compound]	0*	–
CNc1cnn(-c2cccc(C(F)(F)F)c2)c(=O)c1Cl [Norflurazon]	0	–
O=C(NC(=O)c1c(F)cccc1F)Nc1ccc(OC(F)(F)C(F)OC(F)(F)F)c(Cl)c1 (stereo not shown) [Novaluron]	0	–
CC(C)(C)CC(C)(C)c1ccc(O)c(-n2nc3ccccc3n2)c1 [Octrizole]	1	–
CC(C)Oc1cc(-n2nc(C(C)(C)C)oc2=O)c(Cl)cc1Cl [Oxadiazon]	1	–
CC1=C(C(=O)Nc2ccccc2)S(=O)(=O)CCO1 [Oxycarboxin]	0	–
CCOc1cc(Oc2ccc(C(F)(F)F)cc2Cl)ccc1[N+](=O)[O-] [Oxyfluorfen]	1	–
CCOP(=S)(OCC)Oc1ccc([N+](=O)[O-])cc1 [Parathion]	1	–
Oc1c(Cl)c(Cl)c(Cl)c(Cl)c1Cl [Pentachlorophenol]	1	–
Nc1ccc(/N=N/c2ccccc2)c(N)n1 [Phenazopyridine hydrochloride, reference compound]	1	–
CCOP(=S)(OCC)SCSCC [Phorate]	0*	–
CCOP(=S)(OCC)SCn1c(=O)oc2cc(Cl)ccc21 [Phosalone]	1	–
C#CCC1=C(C)C(OC(=O)C2C(C=C(C)C)C2(C)C)CC1=O (stereo not shown) [Prallethrin]	1	–
CCCN(CCOc1c(Cl)cc(Cl)cc1Cl)C(=O)n1ccnc1 [Prochloraz]	0*	–
CCCSP(=O)(OCC)Oc1ccc(Br)cc1Cl (stereo not shown) [Profenofos]	1	–

SMILES	MMP assay hitCall [1, 3]	also measured
CCC(=O)Nc1ccc(Cl)c(Cl)c1 [Propanil]	1	–
C#CCOS(=O)OC1CCCCC1Oc1ccc(C(C)(C)C)cc1 (stereo not shown) [Propargite]	1	–
C#CC(C)(C)NC(=O)c1cc(Cl)cc(Cl)c1 [Propyzamide]	0	–
COC(=O)N(OC)c1ccccc1COc1ccn(-c2ccc(Cl)cc2)n1 [Pyraclostrobin]	1	–
CC(C)(C)c1ccc(CSc2cnn(C(C)(C)C)c(=O)c2Cl)cc1 [Pyridaben, reference compound]	1	–
Cc1cc(C)nc(Nc2ccccc2)n1 [Pyrimethanil]	0	–
CC(COc1ccc(Oc2ccccc2)cc1)Oc1ccccn1 (stereo not shown) [Pyriproxyfen]	0	–
CC(C)=CC1C(C(=O)OCc2coc(Cc3ccccc3)c2)C1(C)C (stereo not shown) [Resmethrin]	1	–
C=C(C)[C@H]1Cc2c(ccc3c2O[C@@H]2COc4cc(OC)c(OC)cc4[C@@H]2C3=O)O1 [Rotenone, reference compound]	1	–
CCCN(CC)CC1COC2(CCC(C(C)(C)C)CC2)O1 (stereo not shown) [Spiroxamine]	0	–
CO[C@@H]1[C@H](OC(=O)NC(=O)CCl)CC[C@]2(CO2)[C@H]1[C@@]1(C)O[C@@H]1CC=C(C)C [TNP-470]	0	–
CCCCCCCCCCCCCC[N+](C)(C)C [Tetradonium bromide]	0	–
CC(C)=CC1C(C(=O)OCN2C(=O)C3=C(CCCC3)C2=O)C1(C)C (stereo not shown) [Tetramethrin]	1	–
COC(=O)c1c(C(F)F)nc(C(F)(F)F)c(C2=NCCS2)c1CC(C)C [Thiazopyr]	0	–
COC(=O)NC(=S)Nc1ccccc1NC(=S)NC(=O)OC [Thiophanate-methyl]	0*	–
O=C(O)Cc1cc(I)c(Oc2ccc(O)c(I)c2)c(I)c1 [Tiratricol, reference compound]	0	–
Cc1ccc(S(=O)(=O)NC(=O)NN2CCCCCC2)cc1 [Tolazamide, reference compound]	0	–
CC(C)(C)C(=O)C(Oc1ccc(Cl)cc1)n1cncn1 (stereo not shown) [Triadimefon]	0	–
CC(C)(C)C(O)C(Oc1ccc(Cl)cc1)n1cncn1 (stereo not shown) [Triadimenol]	0	–
CCC[CH2][Sn]([Cl])([CH2]CCC)[CH2]CCC [Tributyltin chloride]	–	MMP assay hitCall [1]: 1
COP(=O)(OC)C(O)C(Cl)(Cl)Cl (stereo not shown) [Trichlorfon]	0	–
O=C(Nc1ccc(Cl)cc1)Nc1ccc(Cl)c(Cl)c1 [Triclocarban]	1	–
Oc1cc(Cl)ccc1Oc1ccc(Cl)cc1Cl [Triclosan]	1	–
CON=C(C(=O)OC)c1ccccc1CON=C(C)c1cccc(C(F)(F)F)c1 [Trifloxystrobin]	1	–
O=P(Oc1ccccc1)(Oc1ccccc1)Oc1ccccc1 [Triphenyl phosphate]	1	–
O=P(OCC(Br)CBr)(OCC(Br)CBr)OCC(Br)CBr (stereo not shown) [Tris(2,3-dibromopropyl) phosphate]	–	MMP assay hitCall [1]: 1
